Test system: immortalized human mesencephalon cells
Assay: Differentiation of conditionally-immortalized human mesencephalon cell lines into neurons
Assay type: cell-based
Settings: added together: forskolin 10 μM, GDNF 20 ng/mL, CNTF 20 ng/mL, IGF-I 100 ng/mL, BDNF 20 ng/mL
Description: Conditionally-immortalized human mesencephalon neural precursor cell lines (which may, but need not, be clonal) may generally be induced to differentiate into neurons by inhibiting the expression of the growth-promoting gene (i.e., suppressing the production and/or activity of the growth-promoting protein). For example, if the gene encoding the growth-promoting protein is under the control of an externally-regulatable promoter, the conditions (e.g. temperature or composition of medium) may be modified to suppress transcription of the growth-promoting gene. For the tetracycline-controlled gene expression system discussed above, differentiation may be achieved by the addition of tetracycline to suppress transcription of the growth-promoting gene. In general, 1-5 μg/mL tetracycline for 48 hours is sufficient to begin neuronal morphological differentiation, and the number of differentiated neurons increases during subsequent days. Such differentiation may be performed, for example, by plating the cells on a suitable substrate (e.g., one or a combination of polyamino acid, fibronectin, laminin or tissue culture plastic) in a medium consisting of DMEM/F-12 with N2 supplement and tetracycline (1-5 μg/mL). […] Culture medium may then be refreshed (e.g., every 2-4 days).
An increase in TH expression was also observed for some cell lines, indicating the presence of dopaminergic neurons.
One clone (MESII(1)-C2) was differentiated in DMEM/F-12 with N2 supplement, tetracycline (1 μg/mL), forskolin (10 μM), GDNF (20 ng/mL) and BDNF (20 ng/mL). Following differentiation, a high number of MAP2ab and TH immunoreactive cells were observed. For such immunocytochemistry, cells were fixed with 4% paraformaldehyde, and were incubated with primary antibody in blocking buffer for 2 hours at room temperature, rinsed, and then incubated with a fluorescein (FITC)- or Texas red-conjugated species-specific secondary antibody (Jackson lmmunoresearch Laboratories, Inc., West Grove, Pa.) in blocking buffer for another hour at room temperature. Cultures were then rinsed three times with PBS and coverslipped with PVA/DABCO before scoring and photographing representative fields.

Molecule | enhancement of differentiation by addition to DMEM/F-12 with N2 supplement and tetracycline
IGF-I: insulin-like growth factor | differentiation is enhanced
BDNF: brain-derived neurotrophic factor | differentiation is enhanced
CNTF: ciliary neurotrophic factor (protein, UniProt P26441 1-200, looked up) Ciliary neurotrophic factor: MAFTEHSPLTPHRRDLCSRSIWLARKIRSDLTALTESYVKHQGLNKNINLDSADGMPVASTDQWSELTEAERLQENLQAYRTFHVLLARLLEDQQVHFTPTEGDFHQAIHTLLLQVAAFAYQIEELMILLEYKIPRNEADGMPINVGDGGLFEKKLWGLKVLQELSQWTVRSIHDLRFISSHQTGIPARGSHYIANNKKM | differentiation is enhanced
GDNF: glial cell-derived neurotrophic factor (protein, UniProt P39905 78-211, looked up) Glial cell line-derived …: SPDKQMAVLPRRERNRQAAAANPENSRGKGRRGQRGKNRGCVLTAIHLNVTDLGLGYETKEELIFRYCSGSCDAAETTYDKILKNLSRNRRLVSDKVGQACCRPIAFDDDLSFLDDNLVYHILRKHSAKRCGCI | differentiation is enhanced
